Measurements taken from publication PMC7496275, “Pentathiepins: A Novel Class of Glutathione Peroxidase 1 Inhibitors that Induce Oxidative Stress, Loss of Mitochondrial Membrane Potential and Apoptosis in Human Cancer Cells” (Chemmedchem, 2020).

Biological target: T1, bovine erythrocyte GPx (Bos taurus, UniProt P00435)
T1 construct: 180 μL of a bovine erythrocyte GPx1 solution (0.125 U/mL); purchased Sigma Aldrich (Taufkirchen, Germany); host or cells: bovine erythrocytes
T1 sequence (P00435 1-205): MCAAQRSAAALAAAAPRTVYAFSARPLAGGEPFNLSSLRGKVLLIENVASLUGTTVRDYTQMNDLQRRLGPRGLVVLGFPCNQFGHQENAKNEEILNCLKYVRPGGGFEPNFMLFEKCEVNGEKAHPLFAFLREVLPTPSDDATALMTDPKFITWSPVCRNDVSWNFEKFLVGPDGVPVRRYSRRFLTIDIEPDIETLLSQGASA
Test: GPx enzyme activity assay (TBHP/GSH, GR/NADPH coupled)
Assay type: biochemical
Description: The ability of pentathiepins to inhibit the bovine erythrocyte GPx activity was assayed for by an established enzyme method, which is based on the GPx‐dependent reduction of tert‐butyl hydroperoxide (TBHP) by GSH, leading to the formation of GSSG, which is coupled to the reduction of GSSG back to GSH by glutathione reductase (GR) and the oxidation of NADPH to NADP^+[10] (Figure 1). Inhibition potencies of the compounds were ranked by their IC50 values; that is, concentration of the inhibitor at the inflection point in the sigmoidal log dose‐inhibition curve (Figure 4A), and are summarized for the pentathiepins and mercaptosuccinic acid (MSA) in Table 1.
GPx enzyme activity assay: To evaluate if the various compounds could inhibit GPx1, an enzymatic assay monitoring the activity of the bovine erythrocyte GPx was used as described previously.33 Bovine erythrocyte GPx is highly homologous to the human GPx1 (homology of 87 %)34 but much more affordable. In this assay, GPx reduces tert‐butylhydroperoxide (TBHP) followed by oxidation of glutathione (GSH) to the disulfide (GSSG), which in turn is regenerated to GSH by glutathione reductase (GR) with the consumption of NADPH. To each well of a UV‐transparent 96‐well plate were added 180 μL of a bovine erythrocyte GPx1 solution (0.125 U/mL) and 30 μL of prospective inhibitor in different concentrations diluted in DMF and incubated under shaking for 15 min at room temperature. Then 30 μL of stock solutions of GSH (2.5 mM) and baker's yeast GR plus NADPH (2 U/mL; 2.0 mM) were added. All stock solutions were prepared in potassium phosphate buffer (50 mM, pH 7.4, EDTA 1.1 mM, Triton‐X 0.01 %). The reaction was started by addition of TBHP solution (5 mM), giving final concentrations of 0.075 U/mL bovine erythrocyte GPx, 0.2 U/mL GR, 0.25 mM GSH, 0.2 mM NADPH and prospective inhibitor concentrations between 0.2–100 μM. The reaction was followed by the rate of decreasing absorption of the NADPH at λ=340 nm, measured every 15 s for ca. 20 min. The GPx activity related to untreated control was imported into the GraphPad Prism 6.0 software and the IC50 values were calculated by estimating the inflection point of the sigmoidal log concentration‐activity curves.

IC50 (23 °C, n>3, 0.25 mM GSH, read-out: Enzyme inhibition IC50 (CI 95 %)): 2.44 µM
potency at inhibiting GPx1 compared to MSA (ratio of IC50 values): twice as potent as MSA
SMILES: CCOc1c2c(c3cnc4cc(C)c(C)cc4n13)SSSSS2 [Compound 4]
